Results taken from patent publication US8426447B2, “Spiro-tricyclic ring compounds as beta-secretase modulators and methods of use” (Amgen Inc., priority 2008, dated 2013).
Blank lines part the entries; values can stand above or below the compound they belong to.

Tests used:
BACE1 [1] = biological target: T1, BACE1 (Homo sapiens, UniProt P56817); experiment: In Vitro Enzymatic BACE FRET (Fluorescence Resonance Energy Transfer) Assay; format: biochemical; conditions: read-out: BACE1 FRET assay
Protocol: In Vitro Enzymatic BACE FRET (Fluorescence Resonance Energy Transfer) Assay (Enzyme Assay Data in the Example Tables I, II, III & IV) The assay buffer used in this screen is 0.05 M acetate, pH 4.2, 10% DMSO final, 100 uM genapol (which is a nonionic detergent, below its Critical Micelle Concentration). […] This assay is effectively started by the addition of FRET substrate (50 nM) and the combination is incubated for one hour. The FRET assay is terminated with by addition of Tris buffer, which raises the pH to neutrality, and the fluorescence is determined. The FRET substrate is a peptide with commercially available fluorophore and quencher, on opposite sides of the BACE cleavage site. […]

BACE1 [2] = biological target: T1, BACE1; experiment: In Vitro BACE Cell-based Assay (HEK cell assay): Aβ40 in conditioned medium of cells stably expressing Amyloid Precursor Protein, sandwich ELISA; conditions: read-out: HEK cell assay
Protocol: In Vitro BACE Cell-based Assay
The cell-based assay measures inhibition or reduction of Aβ40 in conditioned medium of test compound treated cells expressing amyloid precursor protein.
Cells stably expressing Amyloid Precursor Protein (APP) were plated at a density of 40K cells/well in 96 well plates (Costar). The cells were cultivated for 24 hours at 37° C. and 5% CO2 in DMEM supplemented with 10% FBS. The test compounds were then added to cells in 10-point dose response concentrations with the starting concentration being either 100 μM or 10 μM. The compounds were diluted from stock solutions in DMSO and the final DMSO concentration of the test compounds on cells was 0.1%. After 24 h of incubation with the test compounds the supernatant conditioned media was collected and the Aβ 40 levels were determined using a sandwich ELISA. The IC50 of the compound was calculated from the percent of control or percent inhibition of Aβ 40 as a function of the concentration of the test compound.
The sandwich ELISA to detect Aβ 40 was performed in 96 well microtiter plates, which were pre-treated with goat anti-rabbit IgG (Pierce). The capture and detecting antibody pair that were used to detect Aβ 40 from cell supernatants were affinity purified pAb40 (Biosource) and biotinylated 6E10 (Signet Labs Inc.), respectively. The optimal concentration for the pAb40 antibody was 3 μg/ml in Superblock/TBS (Pierce) that was supplemented with 0.05% Tween 20 (Sigma).
Cellular supernatants were incubated with the capture antibody for 3 h at 4° C., followed by 3 wash steps in TBS-tween (0.05%). The detecting antibody incubation was for 2 h at 4° C., again followed by the wash steps as described previously. The final readout of the ELISA is Time-Resolved Fluorescence (counts per minute) using Delfia reagents Streptavidin-Europium and Enhancement solutions (Perkin Elmer) and the Victor 2 multilabel counter (Perkin Elmer).

[3] = in vitro BACE FRET enzyme assay, IC50 class symbols
[4] = HEK cell-based assay, Aβ40 in conditioned medium, IC50 class symbols

T1 sequence (P56817 46-501, species assumed): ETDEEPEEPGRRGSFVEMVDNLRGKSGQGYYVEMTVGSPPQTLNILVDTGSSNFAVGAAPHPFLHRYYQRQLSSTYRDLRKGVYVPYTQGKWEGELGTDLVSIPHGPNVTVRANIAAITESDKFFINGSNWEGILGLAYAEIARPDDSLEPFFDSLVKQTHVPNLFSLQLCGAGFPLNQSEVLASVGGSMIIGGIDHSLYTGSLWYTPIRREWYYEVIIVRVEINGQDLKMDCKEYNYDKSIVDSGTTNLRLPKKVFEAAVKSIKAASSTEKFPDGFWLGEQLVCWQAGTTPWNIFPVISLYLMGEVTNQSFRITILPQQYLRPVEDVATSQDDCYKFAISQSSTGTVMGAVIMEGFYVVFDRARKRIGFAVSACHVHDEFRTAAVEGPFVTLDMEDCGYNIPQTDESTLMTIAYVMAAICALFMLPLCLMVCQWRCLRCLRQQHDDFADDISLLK

IC50 (BACE1 [1]; Table II): 0.1 to 1 µM
IC50 (BACE1 [2]; Table II, Aβ40, 24 h incubation): 0.1 to 1 µM
Compound: CN(C)CC#Cc1ccc2c(c1)[C@@]1(COC(N)=N1)c1cc(OCC(C)(C)C)ccc1O2 [Example 89, (4S)-2′-(3-(dimethylamino)-1-propyn-1-yl)-7′-(2,2-dimethylpropoxy)spiro[1,3-oxazole-4,9′-xanthen]-2-amine]

IC50 (BACE1 [1]; Table IV, class symbols): 1 to 5 µM
IC50 (BACE1 [2]; Table IV, class symbols): > 5 µM
Compound: NC1=N[C@]2(CO1)c1cc(-c3ccccc3)ccc1Oc1ncccc12 [compound 598]

IC50 (BACE1 [1]; Table IV, class symbols): < 0.1 µM
IC50 (BACE1 [2]; Table IV, class symbols): 0.1 to 1 µM
Compound: CC1(C)Cc2cc(-c3ccc4c(c3)[C@]3(COC(N)=N3)c3cc(-c5cncnc5)ccc3O4)ccc2O1 [compound 841]

IC50 (BACE1 [1]): < 0.1 µM
IC50 (BACE1 [2]): 0.1 to 1 µM
Compound: CC(C)(C)C#Cc1ccc2c(c1)[C@@]1(COC(N)=N1)c1cc(C#CC(C)(C)C)cnc1O2 [compound 1000]

IC50 (BACE1 [1]; [3]): 0.1 to 1 µM
IC50 (BACE1 [2]; [4]): 0.1 to 1 µM
Compound: NC1=N[C@@]2(CO1)c1cc(-c3cccnc3)ccc1Oc1ccc(N3CCOCC3)nc12 [compound 334]

IC50 (BACE1 [1]): 0.1 to 1 µM
IC50 (BACE1 [2]): 0.1 to 1 µM
Compound: CC(C)(C)OC(=O)Cc1ccc2c(c1)[C@]1(COC(N)=N1)c1cc(-c3cccnc3)ccc1O2 [compound 706]

IC50 (BACE1 [1]; Table III, IC50's in uM ranges): < 0.1 µM
IC50 (BACE1 [2]; Table III, IC50's in uM ranges): 0.1 to 1 µM
Compound: CC(C)(C)COc1ccc2c(c1)[C@]1(COC(N)=N1)c1cc(-c3cncnc3)cc(F)c1O2 [155b]

IC50 (BACE1 [1]): > 5 µM
IC50 (BACE1 [2]): > 5 µM
Compound: NC1=N[C@@]2(CO1)c1cc(Oc3ccccn3)ccc1Oc1ncc(Br)cc12 [compound 936]

IC50 (BACE1 [1]; Table 1): 0.1 to 1 µM
IC50 (BACE1 [2]; Table 1, Aβ40, 24 h incubation): 1 to 5 µM
Compound: COc1ccc2c(c1)C1(COC(N)=N1)c1cc(-c3cncnc3)ccc1O2 (stereo not shown) [Example 14, 2′-methoxy-7′-(5-pyrimidinyl)spiro[1,3-oxazole-4,9′-xanthen]-2-amine]

IC50 (BACE1 [1]): 1 to 5 µM
IC50 (BACE1 [2]): > 5 µM
Compound: COC(C)(C)C#Cc1cnc2c(c1)[C@@]1(COC(N)=N1)c1cc(-c3ccnnc3)ccc1O2 [compound 681]

IC50 (BACE1 [1]; [3]): < 0.1 µM
IC50 (BACE1 [2]; [4]): 0.1 to 1 µM
Compound: NC1=N[C@@]2(CO1)c1cc(-c3cccnc3F)ccc1Oc1ccc(-c3ccnc(F)c3)nc12 [compound 399]

IC50 (BACE1 [1]): 0.1 to 1 µM
IC50 (BACE1 [2]): 1 to 5 µM
Compound: NC1=N[C@]2(CO1)c1cc(C3=CCOCC3)ccc1Oc1ccc(C3CC3)cc12 [compound 756]

IC50 (BACE1 [1]): 0.1 to 1 µM
IC50 (BACE1 [2]): 1 to 5 µM
Compound: CN(C)c1ncc(-c2ccc3c(c2)[C@]2(COC(N)=N2)c2cc(OCC(C)(C)C)ccc2O3)cn1 [compound 780]

IC50 (BACE1 [1]; Table IV, class symbols): 0.1 to 1 µM
IC50 (BACE1 [2]; Table IV, class symbols): 0.1 to 1 µM
Compound: CC(C)(C)COc1ccc2c(c1)[C@]1(COC(N)=N1)c1cc(C(=O)N3CCC3)ccc1O2 [compound 608]

IC50 (BACE1 [1]; Table III, IC50's in uM ranges): < 0.1 µM
IC50 (BACE1 [2]; Table III, IC50's in uM ranges): 0.1 to 1 µM
Compound: CC(C)(C#N)COc1ccc2c(c1)[C@]1(COC(N)=N1)c1cc(-c3cncnc3)cnc1O2 [compound 167]

IC50 (BACE1 [1]; Table IV, class symbols): < 0.1 µM
IC50 (BACE1 [2]; Table IV, class symbols): < 0.1 µM
Compound: CC(C)(O)COc1ccc2c(c1)[C@]1(COC(N)=N1)c1cc(-c3cccnc3F)ccc1O2 [compound 906]

IC50 (BACE1 [1]; Table III, IC50's in uM ranges): < 0.1 µM
IC50 (BACE1 [2]; Table III, IC50's in uM ranges): 1 to 5 µM
Compound: CC(=O)c1cccc(-c2ccc3c(c2)[C@]2(COC(N)=N2)c2cc(OCC(C)(C)C)ccc2O3)c1 [compound 191]

IC50 (BACE1 [1]): < 0.1 µM
IC50 (BACE1 [2]; HEK cells): < 0.1 µM
Compound: CC1(C)C[C@H](c2ccc3c(c2)[C@]2(COC(N)=N2)c2cc(-c4cncnc4)ccc2O3)CCO1 [compound 482]

IC50 (BACE1 [1]): < 0.1 µM
IC50 (BACE1 [2]): 0.1 to 1 µM
Compound: CC(C)(C)COc1ccc2c(c1)[C@]1(COC(N)=N1)c1cc(C(=O)NC3CCC3)ccc1O2 [compound 702]

IC50 (BACE1 [1]; Table IV, class symbols): < 0.1 µM
IC50 (BACE1 [2]; Table IV, class symbols): < 0.1 µM
Compound: CC(C)(C)C#Cc1cc2c(cn1)Oc1ccc(-c3cccnc3)cc1[C@@]21COC(N)=N1 [compound 845]

IC50 (BACE1 [1]): 0.1 to 1 µM
IC50 (BACE1 [2]): 1 to 5 µM
Compound: CC(C)(C)COc1ccc2c(c1)[C@]1(COC(N)=N1)c1cc(-c3c[nH]cn3)ccc1O2 [compound 978]

IC50 (BACE1 [1]): < 0.1 µM
IC50 (BACE1 [2]): < 0.1 µM
Compound: NC1=N[C@]2(CO1)c1cc(C3=CCOCC3)ccc1Oc1ccc(-c3cccnc3)cc12 [compound 715]

IC50 (BACE1 [1]; Table IV, class symbols): 1 to 5 µM
IC50 (BACE1 [2]; Table IV, class symbols): > 5 µM
Compound: COc1ccc2c(c1)[C@]1(COC(N)=N1)c1cc(NC(=O)c3cc(Cl)ccn3)ccc1O2 [compound 534]
